Test results reported in a melting point compilation (Tetko et al.; mined from patent text by program, amines drawn as free bases though some values may be those of a salt).

melting point [°C]	SMILES
106 to 108	Cc1c(-c2ccccc2)oc2c(C(=O)NCC(C)N3CCCCC3)cccc2c1=O (stereo unspecified)
165 to 175	COC(=O)CCC(=O)c1ccc2c(c1)CNC(=O)N2C
189 to 190	CC12CCc3ccccc3C1=NNC(=O)C2 (stereo unspecified)
120 to 121	O=C(O)[C@H](Cc1ccc(C(F)(F)F)cc1)[C@@H](O)c1ccc(F)cc1F (racemic)
191 to 193	O=C(CCc1ccccc1)Nc1c(O)cc(-c2ccccc2)oc1=O
52 to 54	CCCN(c1cc(Cl)ncn1)n1cccc1
178 to 180	CCCCc1nc(Cl)c(CO)n1Cc1ccc(Oc2ccccc2C(=O)O)cc1
112 to 114	COC(=O)COc1ccc(SCc2cc(-c3ccc(Cl)cc3)on2)c2c1CCC2
193 to 197	CN(C)CC(=O)N1CCN(Cc2ccc3c(c2)Cc2c(-c4cccs4)n[nH]c2-3)CC1
144	O=C(c1cc(C(F)(F)F)cc(C(F)(F)F)c1)N1CCC(N2CCN(Cc3ccccc3)CC2)CC1Cc1ccccc1 (stereo unspecified)
221 to 224	O=C(NC1=NCCC1)Nc1ccc(Br)cc1
> 300	CCNC(=O)Nc1nc2cc(-c3cccnc3)cc(C(=O)NC)n2n1
137 to 138	Cc1c(NC(=O)CCCCc2ccc(F)cc2)ccc2cc(CN3CCCC3)cnc12
73 to 75	CCOC(=O)C(=O)Nc1ccccn1
82 to 84	CS(=O)(=O)c1ccc(-n2cc(C(F)(F)F)nc2-c2ccc(-c3ccco3)cc2)cc1
163 to 165	Cc1ccc(-c2nc3cc([N+](=O)[O-])ccc3o2)s1
160 to 164	C#CCN=C(NC#N)SC
208	Nc1nc2c(ncn2OCCCCP(=O)(O)O)c(=O)[nH]1
190 to 191	COc1ccc(S(=O)(=O)N2C(=O)C(O[Si](C)(C)C)(c3ccccc3OC)c3cc(Cl)c(C)cc32)c(OC)c1 (stereo unspecified)
184 to 185	CCOC(=O)c1ncn(-c2nncs2)c1Cl
125 to 126	CC(=O)OC(C)(C)c1nnc(-c2ccc3occ(-c4cc(F)ccc4F)c3c2)o1
95 to 97	CCNC(=O)n1nc(Oc2ccc([N+](=O)[O-])cc2C(F)(F)F)cc1C
119 to 121	COc1ccc(NC(C)(C)C(=O)O)c([N+](=O)[O-])c1
72 to 74	CCCCCCCCOC(=O)COc1cc(F)ccc1C(=O)NCc1cccc([N+](=O)[O-])c1
269 to 272	CCCc1cccn2c(=O)c(-c3nnn[nH]3)cnc12

melting point [°C]	SMILES
195 to 198	C#CCOc1ccc(C(=O)O)c(C2=NC(=O)C(C)(C(C)C)N2)n1 (stereo unspecified)
110 to 115	COc1ncccc1-c1[nH]c2ccccc2c1C1CCNCC1
90 to 92	C=CCNC(=O)N1CC(Oc2cccc(Br)c2)C1
186 to 190	CC1(C)CC(O)CC(C)(C)N1CC(O)CN1C(C)(C)CC(O)CC1(C)C
109 to 110	O=[N+]([O-])c1ccccc1C#Cc1c(F)c(F)nc(F)c1F
255 to 258	Cc1ccc2c(c1)c(C)c1n2C(=O)C(Cc2nc[nH]c2C)CC1 (stereo unspecified)
69 to 70	CCN(CC)C(=O)c1nc(C=Cc2ccc(OC)cc2)no1
287	O=C1/C(=C/c2c[nH]c3ncc(Cl)cc23)N=C(Oc2ccccc2)N1c1ccccc1
162 to 165	N#Cc1nc(Cl)ccc1N
126	CCC1CC(=O)N(Cc2cccc(NC(=O)C(F)(F)C(F)(F)F)c2)N=C1c1ccc(OC)c(OC2CCCC2)c1 (stereo unspecified)
34 to 35	CCCCCCCCCCOC(=O)C1CCC(=O)N1 (stereo unspecified)
64 to 66	CC1(C)Oc2ccc(OC(F)(F)F)cc2[C@@H](NC(=O)c2ccc(Cl)cc2[N+](=O)[O-])[C@@H]1O
254 to 255	Cc1[nH]c(C(=O)NCC2CCCCC2)c(C)c1-c1nc2ccc(C(=O)c3ccccc3)cc2[nH]1
198 to 200	CN1CCN(C(=O)Cn2c(=O)sc3ncc(Cl)cc32)CC1
132 to 134	O=C1CCCc2oc(-c3ccccc3)cc21
67 to 68	CCOC(CI)=Nc1ccc(Cl)cc1C(=O)c1ccccc1
136 to 137	O=S(=O)(c1ccccc1)N1CCN(CC(O)CCl)CC1 (stereo unspecified)
58 to 61	COC(=O)CCc1ccc(CCNC(=O)c2cc(Cl)ccc2OC)cc1
104 to 106	C=CC(=O)OCCc1cc(=O)c(OCc2ccccc2)c(C(=O)c2ccc(Cc3ccc(F)cc3)o2)o1
245	CC1(C)CCC(C)(C)c2cc(-c3cc(-c4ccc(C(=O)O)cc4)ccc3OCCCCCC(=O)O)ccc21
215 to 217	CCOc1cc2c(Nc3cc(OC)c(Cl)cc3Cl)c(C#N)cnc2cc1OCCOC
208 to 210	CCOC(=O)c1cn(CC)c2nc(N3CCN(C(C)=O)CC3)ncc2c1=O
174 to 175	N#Cc1ccc2c(c1)C(n1ccccc1=O)=CC(CF)(CF)O2
180 to 181	CCOC(=O)C=Cc1ccc(C(C)(C)C)c(NC(=O)CC2c3ccccc3Oc3ccccc32)c1
194	Brc1ccc(-c2cnc(-c3ccccc3)nc2)cc1

melting point [°C]	SMILES
60 to 61	CCOC(=O)/C(=C\c1ccc([N+](=O)[O-])cc1)P(=O)(OCC)OCC
124	CCOC(=O)C1=C(N)NC(C)=C(C(=O)OC)C1c1cc([N+](=O)[O-])ccc1Cl (stereo unspecified)
129 to 131	COc1cc2c(c3c1OC(C)(C)C3)C(c1cccc(C(=O)NC(C)(C)C(N)=O)c1)=NC(C)(C)C2
126 to 129	COC(=O)CC1Sc2ccc(N)cc2CN(CCc2ccccc2)C1=O (stereo unspecified)
96 to 98	CC(C)(Cl)c1ccc(-c2ccc(C(C)(C)Cl)cc2)cc1
185 to 186	CC(C)(C)c1ccccc1C(O)(c1ccccc1)c1ncc[nH]1 (stereo unspecified)
235 to 237	CS(=O)(=O)c1ccc(-c2nc(-c3cc4ccccc4o3)[nH]c2-c2ccc(F)cc2)cc1
214 to 215	Cc1nc(N)nc(-c2cccc3ccccc23)c1C
142 to 143	CC1(C(=O)Cc2ccc(Cl)cc2[N+](=O)[O-])CC=CS1 (stereo unspecified)
200 to 202	CC(=O)NCC1CN(c2ccc(N3CCN(c4nnc(C#N)s4)C(F)C3)cc2)C(=O)O1 (stereo unspecified)
241 to 245	CC(=NNc1ccc(C2=NNC(=O)CC2C)cc1)c1cnsn1 (stereo unspecified)
159 to 161	NC(=O)c1cc(O)ccc1Cl
229	CCOc1ccc2cc(-c3nc(-c4ccccc4)no3)c(=O)oc2c1
204 to 206	COc1ccc2c3c(n(C)c2c1)SCCC3=O
110	Cc1ccc(-c2ccc(CN3CCN(c4ccccc4)CC3)o2)cc1C
79 to 81	Cc1ccc(C(=O)C(F)(F)S(=O)(=O)c2ccccc2)cc1
208	CN1CCC(CC(O)c2cc(-c3ccccc3)nc3ccccc23)CC1 (stereo unspecified)
230 to 232	COc1cc(N2CCOCC2)ccc1Nc1nc(Nc2ccc(OC)c3c2N(C)C(=O)CCC3)ncc1Cl
189 to 191	COc1ccc2c(-c3ccc(F)cc3F)noc2c1Cl
274 to 276	Oc1cccc2c1CC(n1cc[nH]c1=S)CC2 (stereo unspecified)
103 to 104	CCCN1CCCC1CNC(=O)c1c(OC)ccc(Br)c1OC (single isomer, unassigned; (-))
134 to 136	CCOP(=O)(CN(CCCc1ccccc1)C(=O)Cc1cc(C(C)(C)C)c(O)c(C(C)(C)C)c1)OCC
187 to 190	CCOc1nc2c(N)nc3cccnc3c2n1[C@@H](C)c1ccccc1
56 to 58	CCOC(=O)C1(C)C=C(Cl)C2=NCN(C)C2=N1 (stereo unspecified)
96 to 97	CC(=O)C(=NO)C(N)=O

melting point [°C]	SMILES
> 250	Nc1nc2c(ncn2C2C=CC(CO)C2)c(=S)[nH]1 (stereo unspecified)
80	CCN(CC)C(=O)n1cnc(Sc2cc(F)c(C#N)cc2F)n1
82 to 84	O=[N+]([O-])c1ccc(Oc2ccccc2Oc2ccc(Cl)cn2)nc1
247 to 250	CCCc1ccc(-c2ccc3c(c2)C=C(C(=O)Nc2ccc(CN(C)C4CCOCC4)cc2)CCS3(=O)=O)cc1
116 to 119	C[C@@H]1Cc2ccsc2[C@H](C)N1CCNS(=O)(=O)c1ccc([N+](=O)[O-])cc1 (relative stereo)
127 to 130	COC(=O)c1ccc(N)c(C(=O)OC)c1
105 to 107	N#CC1=CC(CF)(CF)Oc2ccc(Br)cc21
84 to 85	COc1ccc(-c2coc3cc(OCC(O)CN4CCNCC4)ccc3c2=O)cc1OC (stereo unspecified)
249 to 251	CCCc1nc2c(N)nc3ccccc3c2n1CCCC(N)=O
169 to 174	COc1cncnc1N1CCN(CCCc2c[nH]c3ccc(CNC(C)=O)cc23)CC1
171	Fc1ccc(Cn2c(NC3CCN(CCNc4nnnn4-c4ccccc4)CC3)nc3ccccc32)cc1
241 to 244	CC(C)(C#N)c1ccc(C(=O)Nc2cn3cc(-n4ccnc4)ccc3n2)cc1
176 to 178	NC(C(=O)N(N)c1ccc2ccccc2c1)c1ccccc1 (stereo unspecified)
84 to 86	CC12CCC1(C)C(=O)OC2=O (stereo unspecified)
158 to 159	N#Cc1c[nH]c(-c2ccc(F)cc2)c1
91 to 93	CON(C)C(=O)NN(C(=O)Cl)c1cccc2c1OC(C)C2 (stereo unspecified)
95 to 97	CC[C@@H](c1ccccc1)N(Cc1ccc(C(=O)O)c(F)c1)S(=O)(=O)c1ccc(Cl)cc1
91	CSC1=NS(=O)(=O)CCCS1
106	COc1ccc(OC)c2c(N=[N+]=[N-])ccnc12
253 to 255	CC(C)(C)c1cc(OCc2ccc(-c3nnn[nH]3)cc2)cc(C(C)(C)C)c1
63 to 64	CCN(SCc1nccs1)C(=C[N+](=O)[O-])SC
178 to 180	CC1CCN(CCCC(=O)c2ccc3c(c2)C(=O)c2cc(C(=O)CCCN4CCC(C)CC4)ccc2-3)CC1
206 to 207	COC(=O)N1CCN(c2ccn3nc(-c4ccccc4)c(-c4ccc(=O)n(C(C)C)n4)c3c2)CC1
112	CCN1C(=O)[C@@H](NC(=O)OC(C)(C)C)COc2ccccc21

SMILES	melting point [°C]
COC(=O)[C@@H]1[C@@H](Cc2ccccc2)C[C@@H]2CC[C@H]1N2C	79 to 80
C[C@H]1C[C@H](O)CN1c1ccc(C#N)c2ccccc12	149 to 151
